The Kd is the free concentration of one partner at which half of the binding sites on the other are occupied at equilibrium, for simple one-to-one binding. In general, koff refers to the rate constant with which the complex falls apart. Lower therefore signals slow dissociation.

Starred links: 1 amine or outer side, 2 acyl side, 3 side chain; linkers in the order of their positions; H or OH if unused. Positions of bridges follow the written chain, without caps; N, C: chain ends. Non-standard residues stand in square brackets, D forms with d. Primed or numbered codes have the meaning given here. *: point of attachment. TATA = O=C(CC[*:1])N1CN(C(=O)CC[*:2])CN(C(=O)CC[*:3])C1; NOTA = O=C(O)CN1CCN(CC(=O)O)CCN(CC(=O)*)CC1; Hyp = O=C(O)[C@@H]1C[C@@H](O)CN1; hArg = N=C(N)NCCCC[C@H](N)C(=O)O; PEG12′ = not defined here; Nal = naphthylalanine

One experiment has as its target T1, human Nectin-4 (Homo sapiens, UniProt Q96NY8).
T1 construct: purchased R&D Systems 2659-N4-050
T1 sequence (Q96NY8 32-349 limits assumed): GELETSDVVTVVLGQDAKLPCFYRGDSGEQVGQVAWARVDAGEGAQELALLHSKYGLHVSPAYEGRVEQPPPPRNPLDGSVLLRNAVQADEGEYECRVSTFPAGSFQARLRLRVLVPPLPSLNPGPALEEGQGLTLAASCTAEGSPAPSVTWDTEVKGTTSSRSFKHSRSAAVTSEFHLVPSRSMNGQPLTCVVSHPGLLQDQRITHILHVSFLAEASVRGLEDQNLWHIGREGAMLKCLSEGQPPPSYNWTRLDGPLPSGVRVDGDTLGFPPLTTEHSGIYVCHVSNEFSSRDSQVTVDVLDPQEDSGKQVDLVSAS
The experiment in a line: SPR affinity for recombinant human Nectin-4. The format is binding. The following applies: Biacore T200, CM5 chip, 25°C, His-tagged recombinant protein captured, 1:1 kinetics fit, n = 3. As for the experimental part: (§1) The affinity of AJ647 for human and mouse Nectin-4 recombinant proteins was evaluated by SPR. The experiments were conducted using a Biacore T200 instrument with a CM5 chip at 25°C. The ligands used were His-tagged human Nectin-4 (R&D Systems, catalog no. 2659-N4-050, 44 kDa, 0.2 mg/ml stock concentration) and mouse Nectin-4 proteins (R&D Systems, catalog no. 3116-N4-050, 45 kDa, 0.2 mg/ml stock concentration), which were immobilized onto the CM5 chip. AJ647 (3057.5 Da, 10 mM stock concentration) was used as the analyte, which flowed over the ligand-immobilized surface. FC2 and FC4 was used as the experimental flow cell, while FC1 and FC3 served as the reference. An anti-His antibody (1 mg/ml stock concentration) was immobilized on all flow cells using standard amine coupling chemistry. […] Human Nectin-4 was captured onto FC2 at a level of ~600 RU, with a 1:20 dilution and 10 μg/ml diluted concentration in PBS-P. Mouse Nectin-4 was captured onto FC4 at a level of 600 RU, with a 1:20 dilution and 10 μg/ml diluted concentration in PBS-P. The theoretical maximum response (Rmax ) values were calculated on the basis of the captured response values (table S1), assuming a 1:1 interaction mechanism. […] All association and dissociation kinetics were evaluated by 1:1 kinetics model fitting.

The next experiment deals with T2, mouse Nectin-4 (Mus musculus, UniProt Q8R007).
T2 construct: purchased R&D Systems 3116-N4-050
T2 sequence (Q8R007 31-347 limits assumed): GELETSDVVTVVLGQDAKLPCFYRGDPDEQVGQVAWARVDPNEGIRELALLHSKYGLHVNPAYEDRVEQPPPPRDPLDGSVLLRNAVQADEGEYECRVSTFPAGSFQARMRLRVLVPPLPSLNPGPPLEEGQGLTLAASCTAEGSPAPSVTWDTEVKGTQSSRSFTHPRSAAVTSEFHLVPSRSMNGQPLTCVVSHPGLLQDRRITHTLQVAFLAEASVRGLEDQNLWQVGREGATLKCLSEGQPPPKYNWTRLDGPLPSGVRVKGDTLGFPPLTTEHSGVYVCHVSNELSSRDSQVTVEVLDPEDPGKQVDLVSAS
The experiment in a line: SPR affinity for recombinant mouse Nectin-4. The format is binding. The conditions noted are these: Biacore T200, CM5 chip, 25°C, His-tagged recombinant protein captured, 1:1 kinetics fit, n = 3. Here is the method: as §1
(In general: Surface plasmon resonance follows binding to a sensor surface in real time, without labels.)

Another experiment concerns HT1376 xenografts. The experiment is described as follows: In vivo blocking of [^68Ga]AJ647 uptake by nonradioactive AJ647, PET. More on the design: species or system NSG mice. The following applies: nonradioactive AJ647 2 mg/kg pre-injected; PET-MR 60 min. Here is the method:
Mice with tumor volumes of ~100 to 150 mm^3 were injected with ~200 μCi [7.4 megabecquerels (MBq)] of [^68Ga]AJ647 in […] of 5% ethanol in saline intravenously and anesthetized under 2.5% isoflurane. PET-computed tomography (CT) images were acquired at 60 min after radiotracer injection at 5 min per bed in an ARGUS small-animal PET/CT scanner (Sedecal, Madrid, Spain) as described previously (n = 3, unless otherwise noted). PET-MR images were acquired on a simultaneous 7T Bruker PET-MR scanner. Dynamic imaging was conducted to evaluate the PK of [^68Ga]AJ647. [^68Ga]AJ647 was injected (with the help of a catheter) after mice were anesthetized under 2.5% isoflurane on the equipment bed. All PET data were reconstructed using the two-dimensional (2D) ordered subset expectation maximization algorithm and corrected for radioactive decay and dead times. The SUV values were calculated by finding %IA on the basis of a calibration factor obtained from a known radioactive quantity and then normalizing by mice weight. Amide software was used to derive SUV values by drawing the region of interest to closely fit tumors. […] For the change in accessible Nectin-4 following EV treatment, ΔSUV was calculated by subtracting baseline (pre-treatment) uptake from posttherapy uptake of [^68Ga]AJ647. TE was quantified by normalizing this change by initial SUV in the same subject controls. […]

Experiment [1] relates to bladder cancer cell lines. The experiment is described as follows: In vitro blocking of [^68Ga]AJ647 uptake by nonradioactive AJ647. The format is cell-based. The conditions noted are these: 2 μM nonradioactive AJ647 (0.2 nmol, blocking dose). Here is the method: In vitro binding of [^68Ga]AJ647 to T24, SCaBER, RT112, UC9, UC14, and HT1376 cells was determined by incubating 1 × 10^6 cells with ~1 μCi of [^68Ga]AJ647 for 30 min at 4°C. After incubation, cells were washed three times with ice-cold PBS containing 0.1% Tween 20 and counted on an automated gamma counter. All cell radioactivity uptake studies were performed in quadruplicate for each cell line and repeated three times.

Experiment [2] concerns the target T3, His-tagged mouse Nectin-4 (R&D Systems, catalog no. 3116-N4-050) (mouse, UniProt Q8R007 31-347).
T3 chain: T2 sequence (Q8R007 31-347 limits assumed)
The experiment in a line: SPR.

For experiment [3], the target named is T4, His-tagged human Nectin-4 (R&D Systems, catalog no. 2659-N4-050) (human, UniProt Q96NY8 32-349).
T4 chain: T1 sequence (Q96NY8 32-349 limits assumed)
The experiment in a line: SPR.

As for `CSCC[C@@H]1NC(=O)[C@@H]2CSCCC(=O)N3CN(CN(C3)C(=O)CCSC[C@H](NC(=O)CCOCCOCCOCCOCCOCCOCCOCCOCCOCCOCCOCCOCCNC(=O)CN3CCN(CC(=O)O)CCN(CC(=O)O)CC3)C(=O)N3CCC[C@H]3C(=O)N[C@@H](Cc3cccc4ccccc34)C(=O)N[C@@H](CC(=O)O)C(=O)N2)C(=O)CCSC[C@@H](C(N)=O)NC(=O)[C@H](Cc2c[nH]c3ccccc23)NC(=O)[C@@H]2C[C@@H](O)CN2C(=O)[C@@H]2CCCN2C(=O)[C@H]([C@@H](C)O)NC(=O)[C@H](CO)NC(=O)[C@H](Cc2c[nH]c3ccccc23)NC(=O)[C@@H](CC(=O)O)NC(=O)[C@H](CCCCNC(=N)N)NC1=O` [AJ647], the Kd at human Nectin-4 was determined as 15 ± 10.1 nM; at mouse Nectin-4, 14.1 ± 3.4 nM. For the same molecule, the “effect on [^68Ga]AJ647 uptake in HT1376 xenografts” value in the experiment on HT1376 xenografts is on record as “reduction in tracer uptake”. Besides, the “effect of co-incubation on radiotracer uptake” value in experiment [1] was “significantly reduced radiotracer uptake”.

B1: AJ647 (NOTA-PEG12 conjugate of the bicyclic peptide AJ632) (peptide)
chain: {NOTA-PEG12′}-CP[Nal]DCM[hArg]DWSTP[Hyp]WC-NH2
modifications: linker 1-5-15 via TATA; not fully specified (residue 8)
For B1, the koff in experiment [2] came out at 0.0101 s⁻¹; in experiment [3], 0.0106 s⁻¹.

These data come from article PMC12778052 (Science Advances, 2026).
